Measurements taken from patent publication US20060063820A1, “2,6-dihalo-4-(3,3-dichloro-allyloxy)-benzylalcohole derivatives having insecticidal and acaricidal properties” (priority 2002, published 2006).
Like-named read-outs stand apart in the source and are kept apart here.

What was measured:
Plutella xylostella = test: Action against Plutella xylostella caterpillars (sprayed cabbage plants); assay type: in vivo; conditions: 72 h, read-out: percentage reduction in population and percentage reduction in feeding damage (% activity)
Description: (§1) Young cabbage plants are sprayed with an aqueous emulsion spray mixture comprising 400 ppm of active ingredient. After the spray-coating has dried, the cabbage plants are populated with 10 caterpillars of Plutella xylostella in the third stage and placed in a plastics container. Evaluation is made 3 days later. The percentage reduction in population and the percentage reduction in feeding damage (% activity) are determined by comparing the number of dead caterpillars and the feeding damage on the treated plants with that on the untreated plants.

Heliothis virescens = test: Action against Heliothis virescens caterpillars (sprayed soybean plants); assay type: in vivo; conditions: 144 h, read-out: percentage reduction in population and percentage reduction in feeding damage (% activity)
Description: as §1, with “soybean” for “cabbage”, “Heliothis virescens” for “Plutella xylostella”, “first” for “third”, “6” for “3”

Spodoptera littoralis = test: Action against Spodoptera littoralis (sprayed soybean plants); assay type: in vivo; conditions: 72 h, read-out: percentage reduction in population and percentage reduction in feeding damage (% activity)
Description: Young soybean plants are sprayed with an aqueous emulsion spray mixture comprising 400 ppm of test compound and, after the spray-coating has dried, the plants are populated with 10 caterpillars of Spodoptera littoralis in the first stage and then placed in a plastics container. 3 days later, the percentage reduction in population and the percentage reduction in feeding damage (% activity) are determined by comparing the number of dead caterpillars and the feeding damage on the treated plants with that on untreated plants.

[1] = 400 ppm spray mixture, cabbage plants, caterpillars in the third stage, evaluation 3 days later
[2] = 400 ppm spray mixture, soybean plants, caterpillars in the first stage, evaluation 6 days later
[3] = 400 ppm spray mixture, soybean plants, caterpillars in the first stage, 3 days later

Structure (SMILES) | inhibition at 400 ppm (Plutella xylostella; [1]) [%] | inhibition at 400 ppm (Heliothis virescens; [2]) [%] | inhibition at 400 ppm (Spodoptera littoralis; [3]) [%] | further results
O=C(NCc1c(Cl)cc(OCC=C(Cl)Cl)cc1Cl)Nc1ccccc1C(F)(F)F [Compound 6.23, 1-[2,6-dichloro-4-(3,3-dichloroallyloxy)-benzyl]-3-(2-trifluoromethylphenyl)-urea] | > 80 | > 80 | > 80 | melting point: 215 to 216 °C
C#CCOc1cccc(OCc2c(Cl)cc(OCC=C(Cl)Cl)cc2Cl)c1 [Compound 1.3] |  |  |  | inhibition at 400 ppm (Plutella xylostella): > 80%; inhibition at 400 ppm (Heliothis virescens): > 80%; inhibition at 400 ppm (Spodoptera littoralis): > 80%
COC(=O)COCc1c(Cl)cc(OCC=C(Cl)Cl)cc1Cl [Compound 7.5] | > 80 | > 80 | > 80 | 
O=C(OCCOCc1c(Cl)cc(OCC=C(Cl)Cl)cc1Cl)c1ccc(C(F)(F)F)cc1 [Compound 8.11] |  |  | > 80 | 
Cn1nc(C2OCC(COCc3c(Cl)cc(OCC=C(Cl)Cl)cc3Cl)O2)c(C(F)(F)F)c1Cl (stereo not shown) [Compound 2.15] | > 80 | > 80 | > 80 | 
O=C(OCCOCc1c(Cl)cc(OCC=C(Cl)Cl)cc1Cl)c1ccc(OC(F)(F)F)cc1 [Compound 8.12] | > 80 | > 80 | > 80 | 
O=C(OCc1c(Cl)cc(OCC=C(Cl)Cl)cc1Cl)C1(c2ccc(OC(F)(F)F)cc2)CC1 [Compound 3.15] | > 80 | > 80 | > 80 | 
FC(F)(F)c1ccc(OCc2c(Cl)cc(OCC=C(Cl)Cl)cc2Cl)cc1 [Compound 1.2] |  | > 80 | > 80 | 
Cc1nsc(Oc2cccc(OCc3c(Cl)cc(OCC=C(Cl)Cl)cc3Cl)c2)n1 [Compound 1.21] | > 80 |  |  | 
ClC(Cl)=CCOc1cc(Cl)c(COc2ccc3c(c2)OCO3)c(Cl)c1 [Compound 1.8] |  |  |  | inhibition at 400 ppm (Plutella xylostella): > 80%
O=[N+]([O-])c1cccc(COCc2c(Cl)cc(OCC=C(Cl)Cl)cc2Cl)c1 [Compound 5.9, 1,3-dichloro-5-(3,3-dichloroallyloxy)-2-(3-nitrobenzyloxymethyl)-benzene] |  |  |  | inhibition at 400 ppm (Plutella xylostella): > 80%; inhibition at 400 ppm (Heliothis virescens): > 80%
O=[N+]([O-])c1cc(C2OCC(COCc3c(Cl)cc(OCC=C(Cl)Cl)cc3Cl)O2)cs1 (stereo not shown) [Compound 2.12] | > 80 | > 80 | > 80 | 
O=C(OCc1c(Cl)cc(OCC=C(Cl)Cl)cc1Cl)C1(c2ccc([N+](=O)[O-])cc2)CC1 [Compound 3.17] |  |  |  | melting point: 107 to 108 °C
FC(F)(F)c1cc(OCc2c(Cl)cc(OCC=C(Cl)Cl)cc2Cl)ccn1 [Compound 1.14] | > 80 |  |  | 
N#Cc1c(Br)sc(C2OCC(COCc3c(Cl)cc(OCC=C(Cl)Cl)cc3Cl)O2)c1Cl (stereo not shown) [Compound 2.17] | > 80 | > 80 |  | 
ClC(Cl)=CCOc1cc(Cl)c(COc2ccnc3cc(Cl)ccc23)c(Cl)c1 [Compound 1.12] |  |  |  | inhibition at 400 ppm (Plutella xylostella): > 80%; inhibition at 400 ppm (Heliothis virescens): > 80%; inhibition at 400 ppm (Spodoptera littoralis): > 80%
C#COc1cccc(OCCOCc2c(Cl)cc(OCC=C(Cl)Cl)cc2Cl)c1 [Compound 4.4, 1,3-dichloro-5-(3,3-dichloroallyloxy)-2-[2-(3-ethynyloxy-phenoxy)-ethoxymethyl]-benzene] | > 80 | > 80 |  | 
Cc1nsc(Oc2ccc(OCCOCc3c(Cl)cc(OCC=C(Cl)Cl)cc3Cl)cc2)n1 [Compound 4.10] |  |  |  | melting point: 95 to 97 °C
FC(F)(F)c1ccc(COCc2c(Cl)cc(OCC=C(Cl)Cl)cc2Cl)cc1 [Compound 5.6] | > 80 | > 80 | > 80 | 
CC(C)Oc1ccc(C2(C(=O)OCc3c(Cl)cc(OCC=C(Cl)Cl)cc3Cl)CC2)cc1 [Compound 3.12] | > 80 | > 80 | > 80 | 
FC1(F)Oc2cccc(C3OCC(COCc4c(Cl)cc(OCC=C(Cl)Cl)cc4Cl)O3)c2O1 (stereo not shown) [Compound 2.10] | > 80 | > 80 | > 80 | 
FC(F)(F)Oc1ccc(C2OCC(COCc3c(Cl)cc(OCC=C(Cl)Cl)cc3Cl)O2)cc1 (single isomer, unassigned) [Compound 2.3, 4-[2,6-dichloro-4-(3,3-dichloroallyloxy)-benzyloxymethyl]-2-(4-trifluoromethoxyphenyl)-[1,3]dioxolane] | > 80 | > 80 | > 80 | 
FC(F)(F)c1ccc(OCCOCc2c(Cl)cc(OCC=C(Cl)Cl)cc2Cl)nc1 [Compound 4.11] | > 80 | > 80 | > 80 | 
ClC(Cl)=CCOc1cc(Cl)c(COCC2COC(c3ccc(Br)s3)O2)c(Cl)c1 (stereo not shown) [Compound 2.8] | > 80 | > 80 | > 80 | 
O=C(OCc1c(Cl)cc(OCC=C(Cl)Cl)cc1Cl)C1(c2ccc(F)cc2F)CC1 [Compound 3.16] |  |  |  | melting point: 63 to 64 °C
ClC(Cl)=CCOc1cc(Cl)c(COCc2cnc(Cl)c(Cl)c2)c(Cl)c1 [Compound 5.14] |  |  |  | inhibition at 400 ppm (Plutella xylostella): > 80%; inhibition at 400 ppm (Heliothis virescens): > 80%; inhibition at 400 ppm (Spodoptera littoralis): > 80%
